Test results taken from patent US8012939B2 (Tibotec Pharmaceuticals Ltd. Co, priority 2005, dated 2011).

Columns and labels:
[1] = system: HCV replicons (HCV type 1b, Huh-7 luc/neo cells); test: Replicon assay (Huh-Luc cells, luciferase read-out); assay type: cell-based; conditions: Hepatitis C virus, Huh-7, 72 h
From the text: The compounds of formula (I) were examined for activity in the inhibition of HCV RNA replication in a cellular assay. […] The cellular assay was based on a bicistronic expression construct, as described by Lohmann et al. (1999) Science vol. 285 pp. 110-113 with modifications described by Krieger et al. (2001) Journal of Virology 75: 4614-4624, in a multi-target screening strategy. In essence, the method was as follows.
The assay utilized the stably transfected cell line Huh-7 luc/neo (hereafter referred to as Huh-Luc). This cell line harbors an RNA encoding a bicistronic expression construct comprising the wild type NS3-NS5B regions of HCV type 1b translated from an Internal Ribosome Entry Site (IRES) from encephalomyocarditis virus (EMCV), preceded by a reporter portion (FfL-luciferase), and a selectable marker portion (neo^R, neomycine phosphotransferase). The construct is bordered by 5′ and 3′ NTRs (non-translated regions) from HCV type 1b. Continued culture of the replicon cells in the presence of G418 (neo^R) is dependent on the replication of the HCV RNA. The stably transfected replicon cells that express HCV RNA, which replicates autonomously and to high levels, encoding inter alia luciferase, are used for screening the antiviral compounds.
The replicon cells were plated in 384 well plates in the presence of the test and control compounds which were added in various concentrations. Following an incubation of three days, HCV replication was measured by assaying luciferase activity (using standard luciferase assay substrates and reagents and a Perkin Elmer ViewLux™ ultraHTS microplate imager). Replicon cells in the control cultures have high luciferase expression in the absence of any inhibitor. The inhibitory activity of the compound on luciferase activity was monitored on the Huh-Luc cells, enabling a doseresponse curve for each test compound.

[2] = biological target: T1, HCV NS3/4A protease complexes (full-length hepatitis C NS3 protease enzyme with NS4A cofactor) (Hepatitis C virus genotype 1a, UniProt P27958); test: Inhibition assay (enzymatic assay, depsipeptide substrate hydrolysis); assay type: biochemical; conditions: enzyme 1 nM, 25 μM NS4A cofactor, 0.5 μM substrate, 30° C., pH 7.5, model for competitive inhibition
T1 construct: full-length hepatitis C NS3 protease enzyme
T1 sequence (P27958 1027-1657, one chain of several): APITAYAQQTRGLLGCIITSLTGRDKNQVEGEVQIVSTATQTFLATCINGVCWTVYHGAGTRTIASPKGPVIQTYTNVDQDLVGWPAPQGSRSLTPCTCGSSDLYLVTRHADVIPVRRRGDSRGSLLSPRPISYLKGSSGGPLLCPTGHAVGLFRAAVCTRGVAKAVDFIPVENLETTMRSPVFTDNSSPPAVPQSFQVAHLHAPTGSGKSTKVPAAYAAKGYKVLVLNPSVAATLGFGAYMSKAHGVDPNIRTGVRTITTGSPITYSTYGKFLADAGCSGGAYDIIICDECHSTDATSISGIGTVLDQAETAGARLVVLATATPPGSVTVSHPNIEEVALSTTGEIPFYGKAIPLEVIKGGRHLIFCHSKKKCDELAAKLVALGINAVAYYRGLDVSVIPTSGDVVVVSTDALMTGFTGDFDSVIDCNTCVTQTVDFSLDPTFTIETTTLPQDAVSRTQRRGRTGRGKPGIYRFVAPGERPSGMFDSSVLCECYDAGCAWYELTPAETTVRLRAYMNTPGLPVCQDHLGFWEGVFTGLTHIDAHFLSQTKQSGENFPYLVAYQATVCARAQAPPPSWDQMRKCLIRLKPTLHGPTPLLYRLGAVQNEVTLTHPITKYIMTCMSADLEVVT
Method: [Landro, 1997 #Biochem 36 9340-9348]. […] The solutions were stored at −20° C. between measurements.
[Liu, 1999 Analytical Biochemistry 267 331-335].

[3] = Huh-Luc cells, incubation of three days, luciferase activity

COc1ccc2c(OC3CC4C(=O)NC5(C(=O)O)CC5C=CCCCCN(C)C(=O)C4C3)nc(-c3nc(C4CC4)cs3)cc2c1 (stereo not drawn) [Compound 29, 17-[3-(4-cyclopropylthiazol-2-yl)-6-methoxy-isoquinolin-1-yloxy]-13-methyl-2,14-dioxo-3,13-diazatricyclo[13.3.0.0^4,6]octadec-7-ene-4-carboxylic acid]
EC50 [1, 3]: > 10000 nM | Ki [2]: 150 nM

COc1ccc2c(O[C@@H]3C[C@H]4C(=O)N[C@]5(C(=O)NS(=O)(=O)C6CC6)C[C@H]5/C=C\CCCCN(C)C(=O)[C@@H]4C3)nc(-c3nc(C4CC4)cs3)cc2c1 [Compound 30, N-[17-[3-(4-cyclopropylthiazol-2-yl)-6-methoxyisoquinolin-1-yloxy]-13-methyl-2,14-dioxo-3,13-diazatricyclo[13.3.0.0^4,6]octadec-7-ene-4-carbonyl](cyclopropyl)sulfonamide]
EC50 [1, 3]: 3030 nM | Ki [2]: 1.7 nM

COc1ccc2c(O[C@@H]3C[C@H]4C(=O)N[C@]5(C(=O)O)C[C@H]5/C=C\CCCCN(C)C(=O)[C@@H]4C3)nc(-c3nc(C(C)C)cs3)cc2c1 [Compound 31, 17-[3-(4-isopropylthiazol-2-yl)-6-methoxyisoquinolin-1-yloxy]-13-methyl-2,14-dioxo-3,13-diazatricyclo[13.3.0.0^4,6]octadec-7-ene-4-carboxylic acid]
EC50 [1, 3]: > 10000 nM | Ki [2]: 300 nM

COc1ccc2c(O[C@@H]3C[C@H]4C(=O)N[C@]5(C(=O)NS(=O)(=O)C6CC6)C[C@H]5/C=C\CCCCN(C)C(=O)[C@@H]4C3)nc(-c3nc(C(C)C)cs3)cc2c1 [Compound 32, N-[17-[3-(4-isopropylthiazol-2-yl)-6-methoxyisoquinolin-1-yloxy]-13-methyl-2,14-dioxo-3,13-diazatricyclo[13.3.0.0^4,6]octadec-7-ene-4-carbonyl](cyclopropyl)sulfonamide]
EC50 [1, 3]: 3570 nM | Ki [2]: 1.4 nM

COc1ccc2c(O[C@@H]3C[C@H]4C(=O)N[C@]5(C(=O)O)C[C@H]5/C=C\CCCCN(C)C(=O)[C@@H]4C3)nc(-c3csc(NC(C)C)n3)cc2c1 [Compound 33, 17-[3-(2-isopropylaminothiazol-4-yl)-6-methoxyisoquinolin-1-yloxy]-13-methyl-2,14-dioxo-3,13-diazatricyclo[13.3.0.0^4,6]octadec-7-ene-4-carboxylic acid]
EC50 [1, 3]: 47500 nM | Ki [2]: > 1000 nM

COc1ccc2c(O[C@@H]3C[C@H]4C(=O)N[C@]5(C(=O)NS(=O)(=O)C6CC6)C[C@H]5/C=C\CCCCN(C)C(=O)[C@@H]4C3)nc(-c3csc(NC(C)C)n3)cc2c1 [Compound 34, N-[17-[3-(2-isopropylaminothiazol-4-yl)-6-methoxyisoquinolin-1-yloxy]-13-methyl-2,14-dioxo-3,13-diazatricyclo[13.3.0.0^4,6]octadec-7-ene-4-carbonyl](cyclopropyl)sulfonamide]
EC50 [1, 3]: 1640 nM | Ki [2]: 3.3 nM

COc1ccc2c(O[C@@H]3C[C@H]4C(=O)N[C@]5(C(=O)O)C[C@H]5/C=C\CCCCN(C)C(=O)[C@@H]4C3)nc(-n3cccn3)cc2c1 [Compound 35, 17-[3-(pyrazol-1-yl)-6-methoxyisoquinolin-1-yloxy]-13-methyl-2,14-dioxo-3,13-diazatricyclo[13.3.0.0^4,6]octadec-7-ene-4-carboxylic acid]
EC50 [1]: 20900 nM | Ki [2]: > 1000 nM

COc1ccc2c(O[C@@H]3C[C@H]4C(=O)N[C@]5(C(=O)NS(=O)(=O)C6CC6)C[C@H]5/C=C\CCCCN(C)C(=O)[C@@H]4C3)nc(-n3cccn3)cc2c1 [Compound 36, N-[17-[3-(pyrazol-1-yl)-6-methoxyisoquinolin-1-yloxy]-13-methyl-2,14-dioxo-3,13-diazatricyclo[13.3.0.0^4,6]octadec-7-ene-4-carbonyl]-(cyclopropyl) sulfonamide]
EC50 [1, 3]: 72 nM | Ki [2]: 0.7 nM

COc1ccc2c(O[C@@H]3C[C@H]4C(=O)N[C@]5(C(=O)O)C[C@H]5/C=C\CCCCN(C)C(=O)N4C3)nc(Cl)cc2c1 [Compound 42, 17-(3-chloro-6-methoxyisoquinolin-1-yloxy)-13-methyl-2,14-dioxo-3,13,15-triaza-tricyclo[13.3.0.0^4,6]octadec-7-ene-4-carboxylic acid]
EC50 [1, 3]: > 10000 nM | Ki [2]: 620 nM

COc1ccc2c(O[C@@H]3C[C@H]4C(=O)N[C@]5(C(=O)NS(=O)(=O)C6CC6)C[C@H]5/C=C\CCCCN(C)C(=O)N4C3)nc(Cl)cc2c1 [Compound 43, N-[17-(3-chloro-6-methoxyisoquinolin-1-yloxy)-13-methyl-2,14-dioxo-3,13,15-triaza-tricyclo[13.3.0.0^4,6]octadec-7-ene-4-carbonyl](cyclopropyl) sulfonamide]
EC50 [1, 3]: 2100 nM | Ki [2]: 15 nM

COc1ccc2c(O[C@@H]3C[C@H]4C(=O)N[C@]5(C(=O)O)C[C@H]5/C=C\CCCCN(C)C(=O)N4C3)nccc2c1Br [Compound 50, 17-(5-bromo-6-methoxyisoquinolin-1-yloxy)-13-methyl-2,14-dioxo-3,13,15-triazatricyclo[13.3.0.0^4,6]octadec-7-ene-4-carboxylic acid]
Ki [2]: > 1000 nM

COc1ccc2c(O[C@@H]3C[C@H]4C(=O)N[C@]5(C(=O)NS(=O)(=O)C6CC6)C[C@H]5/C=C\CCCCN(C)C(=O)N4C3)nccc2c1-c1ccc(C)nc1 [Compound 52]
EC50 [1, 3]: > 10000 nM

COc1ccc(-c2c(OC)ccc3c(O[C@@H]4C[C@H]5C(=O)N[C@]6(C(=O)NS(=O)(=O)C7CC7)C[C@H]6/C=C\CCCCN(C)C(=O)N5C4)nccc23)cc1 [Compound 53, N-[17-[5-(4-methoxyphenyl)-6-methoxyisoquinolin-1-yloxy]-13-methyl-2,14-dioxo-3,13,15-triaza-tricyclo[13.3.0.0^4,6]octadec-7-ene-4-carbonyl](cyclopropyl)sulfonamide]
EC50 [1, 3]: > 10000 nM

COc1ccc2c(O[C@@H]3C[C@H]4C(=O)N[C@]5(C(=O)NS(=O)(=O)C6CC6)C[C@H]5/C=C\CCCCN(C)C(=O)N4C3)nccc2c1-c1ccccc1 [Compound 54, N-[17-[5-phenyl-6-methoxyisoquinolin-1-yloxy]-13-methyl-2,14-dioxo-3,13,15-triaza-tricyclo[13.3.0.0^4,6]octadec-7-ene-4-carbonyl](cyclopropyl) sulfonamide]
EC50 [1, 3]: > 10000 nM

COc1ccc2c(O[C@@H]3C[C@H]4C(=O)N[C@]5(C(=O)NS(=O)(=O)C6CC6)C[C@H]5/C=C\CCCCN(C)C(=O)N4C3)nc(-c3ccc(OC(F)(F)F)cc3)cc2c1 [Compound 58, N-[17-(3-(4-trifluoromethoxyphenyl)-6-methoxyisoquinolin-1-yloxy)-13-methyl-2,14-dioxo-3,13,15-triaza-tricyclo[13.3.0.0^4,6]octadec-7-ene-4-carbonyl](cyclopropyl)sulfonamide]
EC50 [1, 3]: 2310 nM

COc1ccc2c(O[C@@H]3C[C@H]4C(=O)N[C@]5(C(=O)NS(=O)(=O)C6CC6)C[C@H]5/C=C\CCCCN(C)C(=O)N4C3)ncc(Br)c2c1 [Compound 66, N-[17-(4-bromo-6-methoxyisoquinolin-1-yloxy)-13-methyl-2,14-dioxo-3,13,15-triaza-tricyclo[13.3.0.0^4,6]octadec-7-ene-4-carbonyl](cyclopropyl) sulfonamide]
EC50 [1, 3]: 323 nM

COc1ccc2c(O[C@@H]3C[C@H]4C(=O)N[C@]5(C(=O)O)C[C@H]5/C=C\CCCCN(C)C(=O)N4C3)nc(-c3csc(NC(C)C)n3)cc2c1 [Compound 71, 17-[3-(2-isopropylaminothiazol-4-yl)-6-methoxyisoquinolin-1-yloxy]-13-methyl-2,14-dioxo-3,13,15-triaza-tricyclo[13.3.0.0^4,6]octadec-7-ene-4-carboxylic acid]
EC50 [1, 3]: > 10000 nM
